Test results taken from patent US8173606B2, “Sulfated oligosaccharide derivatives” (Progen Pharmaceuticals Limited, priority 2004, dated 2012).

Experiment: Pharmacokinetic studies of 35S-labelled compounds after iv administration
Conditions: rat; for AUC0-12 h / C0 / Cl* (apparent) / Vd* (apparent) / t1/2* (apparent): in vivo, iv, 2.5 mg/kg; for k* (apparent): iv bolus 2.5 mg/kg
Method: The polyol precursors for PG500, 501, 503, 504, 506 and PI-88 (2 mg of each) were desiccated under vacuum over P2O5 for 3 days. Into each vial was syringed 50 μL of a stock solution of 1.77 mg (2.0 mCi) of ^35SO3.pyridine complex and 2 mg SO3.Me3N in 300 μL of anhydrous DMF (Aldrich, redried over freshly ignited 3 A molecular sieves). A further 600 μL of anhydrous DMF was added to the SO3 vial and was distributed to each sample vial. The samples were heated to 60° for 66 hr. SO3.Me3N (14 mg in 300 μL anhydrous DMF) was added to each vessel and the resulting solutions were heated to 60° overnight. The vials were cooled to room temperature and stored at −80° C. awaiting purification.
Each sample was quenched by addition of Na2CO3 (sat. aqu. adjusted to pH 8-9), evaporated to dryness and subjected to SEC (Biogel P2, 2.6×90 cm, flow rate 30 mL/hr, 5 min/fraction). Fractions containing desired material were detected using a G-M counter and DMB test followed by CE.
Male Sprague Dawley rats (250-350 g) were used. The animals were allowed free access to food and water before and during the experiments, during which they were maintained unrestrained in metabolism cages. Rats were anaesthetized with isoflurane (Forthane®). A catheter was inserted in the external jugular vein via an incision in the neck, and was passed under the skin to a second incision in the skin of the back (midline vicinity of the scapulae). This was then exteriorized with the protection of a light metal spring. The incision was closed and the spring fixed to the skin with Michel sutures so that the rats had full range of movement. The animals were carefully monitored during recovery (1-4 h).
All doses were administered as a bolus intravenous injection of 2.5 mg/kg in a dose volume of 2 mL/kg. The total amount of radioactivity administered to each rat was 0.5-10 μCi. The dose level used in this study is 10-fold lower than the no-effect dose previously established for acute toxicity of PI-88. Blood samples (˜250 μL) were collected predose and at 5, 15, 30, 45 min, and 1, 1.5, 2, 4, 8, 12, 24, 36 and 48 h after dosing. The blood samples were immediately centrifuged and the plasma collected. At completion of the experiments, the animals were killed by a lethal overdose of IV pentobarbitone anaesthetic (Nembutal®). Urine was collected from each animal at intervals of 0-12 h, 12-24 h and 24-48 h after dosing. Cage washings (˜15 mL of deionised water) were also collected. At the end of the experiment, bladder contents were aspirated from each animal and added to the 24-48 h voidings. Feces were collected over the same time intervals as the urine.
Aliquots of plasma (100 μL), urine and cage washings (500 μL) were transferred directly to 6 mL polypropylene scintillation vials for determination of radioactivity. Feces collected during each time period (from one animal dosed with each compound) were weighed and homogenised in 4 volumes of deionised water using a mechanical homogeniser. Approximately 1 g (accurately weighed) of this slurry was transferred to a 20 mL glass scintillation vial, 2 mL of tissue solubiliser added and the vials capped and incubated at 60° C. for at least 24 h. Radioactivity was measured following mixing of samples with Packard Ultima Gold liquid scintillation counting cocktail (2.0 mL for plasma and dose, 5.0 mL for urine and cage washings, 10 mL for feces). Counting was conducted on a Packard Tr-Carb liquid scintillation counter. Any result less than three times the background was considered less than the lower limit of quantitation not used in calculations. Plasma, urine and cage washings were counted in triplicate within 5 days of collection and were not corrected for radiochemical decay. Feces were processed as a batch at the completion of the study and the counts from these samples were corrected for radiochemical decay.

| Substance | AUC0-12 h [μg-eq/h · mL] | C0 [μg-eq/mL] | Cl* (apparent) [mL/min/kg] | Vd* (apparent) [mL] | t1/2* (apparent) [min] | k* (apparent) [h⁻¹] |
| --- | --- | --- | --- | --- | --- | --- |
| Benzyl Glycoside Polysulfate [PG500] | 12.6 ± 1.2 | 20.5 ± 1.3 | 3.32 ± 0.22 | 38.4 ± 3.8 | 49.8 ± 1.2 | 0.836 ± 0.024 |
| Octyl Glycoside Polysulfate [PG501] | 29.7 ± 3.4 | 35.6 ± 3.1 | 1.39 ± 0.152 | 22.9 ± 2.2 | 66 ± 5.4 | 0.633 ± 0.053 |
